How the values were obtained:
Assay in all cases: relative viability (nuclei count vs DMSO), 5 days (fraction); higher = more cells survive
[1] = compound: CC1=CC=C(C=C1)C(=O)CN2C3=C(CCCC3)SC2=N [Pifithrin_alpha] + CC1(C)CCC(c2ccc(Cl)cc2)=C(CN2CCN(c3ccc(C(=O)NS(=O)(=O)c4ccc(N[C@H](CCN5CCOCC5)CSc5ccccc5)c(S(=O)(=O)C(F)(F)F)c4)cc3)CC2)C1 [Navitoclax] (partner 0.5 µM)
Method in brief: (§1)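 Values are medians from duplicate plates. Each reflects relative viability, defined as the nuclei count of treated wells over that of vehicle wells. Lung cancer cell lines in 1536-well plates were pin-tool dosed one day after seeding with one drug alone or with a fixed anchor-drug dose plus five library-drug doses (not always all listed) in √10 steps, then fixed, stained and imaged at 4× after 5 days.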

[2] = compound: CC1=CC=C(C=C1)C(=O)CN2C3=C(CCCC3)SC2=N [Pifithrin_alpha] + NC(=O)Nc1cc(-c2cccc(F)c2)sc1C(=O)N[C@H]1CCCNC1 [AZD7762] (partner 0.2 µM)
Method in brief: as §1

[3] = compound: CNC(=O)c1ccccc1Sc1ccc2c(/C=C/c3ccccn3)n[nH]c2c1 [Axitinib] + CC(=O)c1c(C)c2cnc(Nc3ccc(N4CCNCC4)cn3)nc2n(C2CCCC2)c1=O [Palbociclib] (partner 0.5 µM)
Method in brief: as §1

[4] = compound: Nc1nc(Nc2ccc3c(c2)CC[C@@H](N2CCCC2)CC3)nn1-c1cc2c(nn1)-c1ccccc1CCC2 [Bemcentinib] + CC(=O)c1c(C)c2cnc(Nc3ccc(N4CCNCC4)cn3)nc2n(C2CCCC2)c1=O [Palbociclib] (partner 0.5 µM)
Method in brief: as §1

| Cell Line | relative viability ([1]; first compound 1 µM) | relative viability ([1]; first compound 3.162 µM) | relative viability ([1]; first compound 10 µM) | relative viability ([1]; first compound 31.62 µM) | relative viability ([1]; first compound 100 µM) | relative viability ([2]; first compound 1 µM) | relative viability ([2]; first compound 3.162 µM) | relative viability ([2]; first compound 10 µM) | relative viability ([2]; first compound 31.62 µM) | relative viability ([2]; first compound 100 µM) | relative viability ([3]; first compound 0.005 µM) | relative viability ([3]; first compound 0.01581 µM) | relative viability ([3]; first compound 0.05 µM) | relative viability ([3]; first compound 0.1581 µM) | relative viability ([3]; first compound 0.5 µM) | relative viability ([4]; first compound 0.04 µM) | relative viability ([4]; first compound 0.1265 µM) | relative viability ([4]; first compound 0.4 µM) | relative viability ([4]; first compound 1.265 µM) | relative viability ([4]; first compound 4 µM) |
| --- | --- | --- | --- | --- | --- | --- | --- | --- | --- | --- | --- | --- | --- | --- | --- | --- | --- | --- | --- | --- |
| NCI-H1975 | 0.918 | 0.848 | 0.621 | 0.616 | 0.686 | 0.508 | 0.485 | 0.501 | 0.512 | 0.38 | 0.694 | 0.586 | 0.507 | 0.541 | 0.672 | 0.561 | 0.827 | 0.665 | 0.567 | 0.746 |
| NCI-H1651 | 1.05 | 1.06 | 0.924 | 0.604 | 0.865 | 0.399 | 0.461 | 0.454 | 0.361 | 0.512 | 0.597 | 0.542 | 0.471 | 0.514 | 0.544 | 0.528 | 0.542 | 0.528 | 0.576 | 0.512 |
| NCI-H23 | 0.797 | 0.857 | 0.889 | 0.736 | 0.729 | 0.229 | 0.279 | 0.265 | 0.172 | 0.268 | 0.458 | 0.512 | 0.616 | 0.483 | 0.559 | 0.443 | 0.472 | 0.558 | 0.457 | 0.519 |
| PC-14 | 1.01 | 0.988 | 0.988 | 0.881 | 0.847 | 0.217 | 0.194 | 0.251 | 0.213 | 0.263 | 0.498 | 0.427 | 0.511 | 0.563 | 0.71 | 0.588 | 0.51 | 0.737 | 0.596 | 0.485 |
| H3255 | 0.376 | 0.428 | 0.444 | 0.434 | 0.497 | 0.716 | 0.95 | 0.801 | 0.683 | 0.637 | 0.332 | 0.294 | 0.316 | 0.334 | 0.329 | 0.283 | 0.305 | 0.297 | 0.275 | 0.334 |
| NCI-H3122 | 1.03 | 1.02 | 1.03 | 0.845 | 1.05 | 1.07 | 1.1 | 0.962 | 0.739 | 1.08 | 0.171 | 0.198 | 0.205 | 0.206 | 0.184 | 0.148 | 0.192 | 0.155 | 0.192 | 0.201 |
| HCC-827 | 1.02 | 0.917 | 0.849 | 0.672 | 0.694 | 0.159 | 0.177 | 0.189 | 0.189 | 0.154 | 0.511 | 0.501 | 0.475 | 0.491 | 0.546 | 0.529 | 0.537 | 0.461 | 0.526 | 0.471 |
| LXF-289 | 0.984 | 1.01 | 0.96 | 0.793 | 0.901 | 1.16 | 1.12 | 1.23 | 1.12 | 1.13 | 0.597 | 0.539 | 0.603 | 0.583 | 0.657 | 0.633 | 0.629 | 0.581 | 0.558 | 0.622 |
| NCI-H727 | 0.356 | 0.412 | 0.307 | 0.244 | 0.271 | 0.478 | 0.57 | 0.571 | 0.51 | 0.48 | 0.597 | 0.66 | 0.596 | 0.673 | 0.613 | 0.625 | 0.663 | 0.637 | 0.696 | 0.667 |
| NCI-H1993 |  | 0.79 | 0.594 | 0.718 | 0.639 | 0.528 | 0.665 | 0.69 | 0.538 | 0.569 | 0.604 | 0.68 | 0.678 | 0.583 | 0.677 | 0.62 | 0.723 | 0.718 | 0.651 | 0.708 |
| NCI-H1437 | 1.25 | 1.16 | 1.13 | 0.784 | 0.775 | 1.21 | 1.21 | 1.11 | 0.735 | 0.942 | 0.353 | 0.283 | 0.346 | 0.307 | 0.313 | 0.322 | 0.373 | 0.298 | 0.226 | 0.324 |
| NCI-H1792 | 0.438 | 0.753 | 0.339 | 0.325 | 0.529 | 0.656 | 0.508 | 0.453 |  | 0.494 | 0.654 | 0.635 | 0.592 | 0.564 | 0.654 | 0.711 | 0.714 | 0.675 | 0.721 | 0.664 |
| LK-2 | 0.862 | 1 | 0.749 | 0.534 | 0.997 | 0.301 | 0.571 | 0.58 |  | 0.346 | 0.492 | 0.661 | 0.544 | 0.659 | 0.668 | 0.78 | 0.75 | 0.934 | 0.728 | 0.665 |
| HOP-62 | 0.908 | 1.09 | 1.06 | 0.751 | 1.07 | 1.24 | 0.803 | 0.769 | 0.659 | 0.809 | 0.469 | 0.436 | 0.44 | 0.45 | 0.468 | 0.46 | 0.501 | 0.485 | 0.474 | 0.463 |
| NCI-H441 | 0.652 | 0.813 | 0.587 | 0.481 | 0.831 | 1.34 | 1.16 | 1.3 |  | 1.06 | 0.239 | 0.225 | 0.222 | 0.204 | 0.25 | 0.197 | 0.202 | 0.227 | 0.195 | 0.223 |
| LC-2-ad | 0.462 | 0.323 | 0.408 | 0.249 | 0.32 | 0.969 | 0.849 | 0.705 | 0.6 | 0.642 | 0.473 | 0.532 | 0.485 | 0.503 | 0.523 | 0.557 | 0.49 | 0.524 | 0.565 | 0.516 |
| NCI-H838 | 1.14 | 1.06 | 1 | 0.833 | 0.882 | 0.875 | 0.909 | 0.832 | 0.744 | 0.884 | 0.246 | 0.229 | 0.233 | 0.226 | 0.23 | 0.226 | 0.249 | 0.221 | 0.205 | 0.243 |
| NCI-H1944 | 1.11 | 1.04 | 0.946 |  | 1.02 | 0.514 | 0.574 | 0.563 | 0.529 | 0.468 | 0.365 | 0.342 | 0.328 | 0.318 | 0.307 | 0.324 | 0.379 | 0.304 | 0.327 | 0.329 |
| CAL-12T |  | 1.22 | 1.16 | 0.686 | 1.15 | 0.548 | 0.658 | 0.62 | 0.401 | 0.476 | 0.586 | 0.508 | 0.41 | 0.525 | 0.522 | 0.3 | 0.59 | 0.47 | 0.489 | 0.45 |
| EPLC-272H |  | 0.978 | 1.02 | 0.894 | 1.25 |  | 0.233 | 0.212 | 0.196 | 0.215 | 0.294 | 0.369 | 0.336 | 0.354 | 0.309 | 0.287 | 0.309 | 0.361 | 0.302 | 0.34 |
| NCI-H2170 | 0.557 | 0.512 | 0.576 | 0.494 | 0.535 | 0.899 | 0.91 | 0.733 | 0.613 | 0.783 | 0.494 | 0.438 | 0.385 | 0.444 | 0.435 | 0.394 | 0.415 | 0.395 | 0.422 | 0.407 |
| NCI-H1915 | 0.791 | 0.793 | 0.788 |  | 0.801 | 0.682 | 0.694 | 0.647 |  | 0.656 | 0.526 | 0.534 | 0.512 | 0.524 | 0.566 | 0.532 | 0.506 | 0.521 | 0.512 | 0.527 |
| NCI-H2087 | 0.948 | 1.04 | 0.998 | 0.742 | 0.715 | 1.4 | 1.32 | 1.28 | 1.03 | 1.26 | 0.251 | 0.202 | 0.294 | 0.265 | 0.255 | 0.235 | 0.24 | 0.228 | 0.273 | 0.198 |
| LCLC-97TM1 |  | 0.548 | 0.513 |  | 0.425 | 0.222 | 0.231 | 0.382 |  | 0.239 | 0.27 | 0.263 | 0.199 | 0.201 | 0.239 | 0.253 | 0.283 | 0.231 | 0.261 | 0.264 |
| NCI-H1734 | 0.892 | 0.95 | 0.796 | 0.745 | 0.734 | 0.486 | 0.526 | 0.517 | 0.429 | 0.524 | 0.35 | 0.373 | 0.345 | 0.334 | 0.425 | 0.345 | 0.32 | 0.349 | 0.345 | 0.345 |
| EKVX | 0.936 | 0.886 | 0.738 | 0.645 | 0.595 | 0.685 | 0.562 | 0.592 | 0.463 | 0.424 | 0.402 | 0.368 | 0.433 | 0.381 | 0.358 | 0.333 | 0.362 | 0.427 | 0.427 | 0.405 |
| 201T | 1.18 | 1.19 | 1.15 | 1.04 | 1.05 | 0.669 | 0.773 | 0.781 | 0.461 | 0.627 | 0.376 | 0.361 | 0.335 | 0.351 | 0.343 | 0.333 | 0.314 | 0.392 | 0.363 | 0.389 |
